The values that follow come from patent US20120115724A1, “METHOD OF CONTROLLING UNDESIRED VEGETATION” (SYNGENTA CROP PROTECTION LLC, priority 2009, published 2012).

Holding throughout (type): in vivo
For assay [1], the system named is Echinochloa crus-galli (ECHCG). Kind of assay: Post-emergence biological efficacy (Example 14). The conditions noted are these: Echinochloa crus-galli, 312 h; post-emergence, 1,000 g/ha, after 13 days; read-out: Percentage damage ECHCG. Here is the method: (§1) Seeds of Alopecurus myosuroides (ALOMY), Setaria faberi (SETFA), Echinochloa crus-galli (ECHCG), Solanum nigrum (SOLNI), Amaranthus retroflexus (AMARE) and Ipomea hederaceae (IPOHE) were sown in standard soil in pots. After cultivation for 8 days under controlled conditions in a glasshouse (at 24/16° C., day/night; 14 hours light; 65% humidity), the plants were sprayed with an aqueous spray solution derived from the formulation of the technical active ingredient in acetone/water (50:50) solution containing 0.5% Tween 20 (polyoxyethylene sorbitan monolaurate, CAS RN 9005-64-5) to give a final dose of 250 or 1000 g/ha of test compound. The test plants were then grown on under controlled conditions in a glasshouse (at 24/16° C., day/night; 14 hours light; 65% humidity) and watered twice daily. After 13 days the test was evaluated (100=total damage to plant; 0=no damage to plant).

Assay [2] concerns Alopecurus myosuroides (ALOMY). Kind of assay: Post-emergence biological efficacy (Example 14). The conditions noted are these: Alopecurus myosuroides, 312 h; post-emergence, 1,000 g/ha, after 13 days; read-out: Percentage damage ALOMY. Here is the method:
as §1

Assay [3] deals with Setaria faberi (SETFA). Kind of assay: Post-emergence biological efficacy (Example 14). The conditions noted are these: Setaria faberi, 312 h; post-emergence, 1,000 g/ha, after 13 days; read-out: Percentage damage SETFA. The protocol:
as §1

Assay [4] concerns Solanum nigrum (SOLNI). Kind of assay: Post-emergence biological efficacy (Example 14). The conditions noted are these: Solanum nigrum, 312 h; post-emergence, 1,000 g/ha, after 13 days; read-out: Percentage damage SOLNI. Here is the method:
as §1

For assay [5], the system named is Ipomea hederaceae (IPOHE). In words: Post-emergence biological efficacy (Example 14). The conditions noted are these: Ipomoea hederacea, 312 h; post-emergence, 1,000 g/ha, after 13 days; read-out: Percentage damage IPOHE. The protocol:
as §1

For assay [6], the system named is Amaranthus retroflexus (AMARE). In words: Post-emergence biological efficacy (Example 14). The conditions noted are these: Amaranthus retroflexus, 312 h; post-emergence, 1,000 g/ha, after 13 days; read-out: Percentage damage AMARE. Here is the method:
as §1

Assay [7] relates to Echinochloa crus-galli (ECHCG). Kind of assay: Pre-emergence biological efficacy (Example 13). The conditions noted are these: Echinochloa crus-galli, 312 h; pre-emergence, 1,000 g/ha, after 13 days; read-out: Percentage damage ECHCG. Here is the method: (§2) Seeds of Alopecurus myosuroides (ALOMY), Setaria faberi (SETFA), Echinochloa crus-galli (ECHCG), Solanum nigrum (SOLNI), Amaranthus retroflexus (AMARE) and Ipomea hederaceae (IPOHE) were sown in standard soil in pots. After cultivation for one day under controlled conditions in a glasshouse (at 24/16° C., day/night; 14 hours light; 65% humidity), the plants were sprayed with an aqueous spray solution derived from the formulation of the technical active ingredient in acetone/water (50:50) solution containing 0.5% Tween 20 (polyoxyethylene sorbitan monolaurate, CAS RN 9005-64-5) to give a final dose of 250 or 1000g/ha of test compound. The test plants were then grown under controlled conditions in the glasshouse (at 24/16° C., day/night; 14 hours light; 65% humidity) and watered twice daily. After 13 days the test was evaluated (100 =total damage to plant; 0 =no damage to plant).

In assay [8] the test system is Alopecurus myosuroides (ALOMY). Kind of assay: Pre-emergence biological efficacy (Example 13). The conditions noted are these: Alopecurus myosuroides, 312 h; pre-emergence, 1,000 g/ha, after 13 days; read-out: Percentage damage ALOMY. Here is the method: as §2
In assay [9] the test system is Setaria faberi (SETFA). Kind of assay: Pre-emergence biological efficacy (Example 13). The conditions noted are these: Setaria faberi, 312 h; pre-emergence, 1,000 g/ha, after 13 days; read-out: Percentage damage SETFA. Here is the method:
as §2

Assay [10] concerns Solanum nigrum (SOLNI). Kind of assay: Pre-emergence biological efficacy (Example 13). The conditions noted are these: Solanum nigrum, 312 h; pre-emergence, 1,000 g/ha, after 13 days; read-out: Percentage damage SOLNI. Here is the method:
as §2

In assay [11] the test system is Ipomea hederaceae (IPOHE). In words: Pre-emergence biological efficacy (Example 13). The conditions noted are these: Ipomoea hederacea, 312 h; pre-emergence, 1,000 g/ha, after 13 days; read-out: Percentage damage IPOHE. Here is the method:
as §2

In assay [12] the test system is Amaranthus retroflexus (AMARE). In words: Pre-emergence biological efficacy (Example 13). The conditions noted are these: Amaranthus retroflexus, 312 h; pre-emergence, 1,000 g/ha, after 13 days; read-out: Percentage damage AMARE. The protocol: as §2
Assay [13] concerns EPHHL Euphorbia heterophylla. Kind of assay: Post-emergence crop and weed test (Example 15). The conditions noted are these: 360 h, after 15 days, read-out: Percentage damage EPHHL. The protocol: (§3) Seeds of crop and representative weed species were sown in standard soil in pots. After cultivation for 14 days under controlled conditions in a glasshouse (at 22/16° C., day/night; 16 hours light; 65% humidity), the plants were sprayed. The spray solution was prepared by dissolving the technical active ingredient in acetone containing 10.56 wt % Emulsogen EL, 42.22 wt % N-methylpyrrolidone and 2.22 wt % DPG-monoethyl ether to give a 5% stock solution. This was then diluted with water containing 0.2% (v/v) of the adjuvant X-77 to give the desired treatment concentration.
(§4) The test plants were then grown on under controlled conditions in a glasshouse (at 22/16° C., day/night; 16 hours light; 65% humidity) and watered twice daily. After 15 days the test was evaluated (100 =total damage to plant; 0 =no damage to plant).

Assay [14] has as its system POLCO Polygonum convolvulus. Kind of assay: Post-emergence crop and weed test (Example 15). The conditions noted are these: Fallopia convolvulus, 360 h, after 15 days, read-out: Percentage damage POLCO. Here is the method:
as §3, §4

In another assay the test system is CHEAL Chenopodium album. In words: Post-emergence crop and weed test (Example 15). The conditions noted are these: 360 h, after 15 days, read-out: Percentage damage CHEAL. The protocol:
as §3, §4

The test system of assay [15] is ABUTH Abutilon theophrasti. Kind of assay: Post-emergence crop and weed test (Example 15). The conditions noted are these: 360 h, after 15 days, read-out: Percentage damage ABUTH. The protocol: as §3, §4
The test system of another assay is VERPE Veronica persica. In words: Post-emergence crop and weed test (Example 15). The conditions noted are these: 360 h, after 15 days, read-out: Percentage damage VERPE. The protocol: as §3, §4
The subject of the next assay is IPOHE Ipomoea hederacea. Kind of assay: Post-emergence crop and weed test (Example 15). The conditions noted are these: 360 h, after 15 days, read-out: Percentage damage IPOHE. The protocol: as §3, §4
In assay [16] the test system is XANST Xanthium strumarium. Kind of assay: Post-emergence crop and weed test (Example 15). The conditions noted are these: 360 h, after 15 days, read-out: Percentage damage XANST. The protocol: as §3, §4
A further assay relates to KCHSC Kochia scoparia. In words: Post-emergence crop and weed test (Example 15). The conditions noted are these: Bassia scoparia, 360 h, after 15 days, read-out: Percentage damage KCHSC. Here is the method:
as §3, §4

For assay [17], the system named is AMARE Amaranthus retroflexus. In words: Post-emergence crop and weed test (Example 15). The conditions noted are these: 360 h, after 15 days, read-out: Percentage damage AMARE. The protocol: as §3, §4
For another assay, the system named is GLXMA Soybean. Kind of assay: Post-emergence crop and weed test (Example 15). The conditions noted are these: Glycine max, 360 h, after 15 days, read-out: Percentage damage GLXMA. Here is the method: as §3, §4
Another assay has as its system SIDSP Sida spinosa. Kind of assay: Post-emergence crop and weed test (Example 15). The conditions noted are these: 360 h, after 15 days, read-out: Percentage damage SIDSP. Here is the method:
as §3, §4

The test system of another assay is SINAR Sinapis arvensis. In words: Post-emergence crop and weed test (Example 15). The conditions noted are these: Mutarda arvensis, 360 h, after 15 days, read-out: Percentage damage SINAR. The protocol: as §3, §4
For a further assay, the system named is GALAP Galium aparine. In words: Post-emergence crop and weed test (Example 15). The conditions noted are these: 360 h, after 15 days, read-out: Percentage damage GALAP. Here is the method:
as §3, §4

For `C=Cc1c(N)nc(-c2ccc(Cl)nc2)nc1C(=O)OC` [Compound 8, 4-amino-2-(6-chloropyridin-3-yl)-5-ethenyl-6-methoxycarbonyl-pyrimidine], the pest or weed control at 1000 g/ha amounted to 0% in assay [1]; 0% in assay [2]; 0% in the assay with Setaria faberi (SETFA) [3]; 90% with Solanum nigrum (SOLNI) [4]; 50% in [5]; 100% in assay [6]. In addition, the pest or weed control at 1000 g/ha in [7] is 0%; in [8], 10%; with Setaria faberi (SETFA) [9], 10%; in the assay on Solanum nigrum (SOLNI) [10] it was 40%; in [11], 40%; in [12], 100%. Also, the pest or weed control at 250 g/ha was found to be 40% in assay [13] (250 g/ha); 60% in [14] (250 g/ha); 100% with CHEAL Chenopodium album (250 g/ha); 60% in assay [15] (250 g/ha); 80% in the assay on VERPE Veronica persica (250 g/ha); 50% in the assay with IPOHE Ipomoea hederacea (250 g/ha). Moreover, the pest or weed control at 250 g/ha was 80% in assay [16] (250 g/ha); 60% with KCHSC Kochia scoparia (250 g/ha); 100% in [17] (250 g/ha); 20% in the assay on SIDSP Sida spinosa (250 g/ha); 70% in the assay with SINAR Sinapis arvensis (250 g/ha). Also, the plant injury at 250 g/ha in the assay with GLXMA Soybean (250 g/ha) came to 10%.

Consider `COC(=O)c1nc(-c2ccc(Cl)c(N(C)C)c2F)nc(N)c1Cl` [Ref. Ex. A, 4-Amino-5-chloro-2-(4-chloro-3-dimethylamino-2-fluorophenyl)-6-methoxycarbonyl-pyrimidine, reference compound], for which the pest or weed control at 30 g/ha in assay [13] (30 g/ha) amounted to 80%; in assay [14] (30 g/ha), 90%; in the assay on CHEAL Chenopodium album (30 g/ha), 80%; in [15] (30 g/ha), 90%; with VERPE Veronica persica (30 g/ha), 70%; in the assay with IPOHE Ipomoea hederacea (30 g/ha), 70%. In addition, the pest or weed control at 30 g/ha in the assay on GALAP Galium aparine (30 g/ha) amounted to 30%; in assay [16] (30 g/ha), 90%; in the assay with KCHSC Kochia scoparia (30 g/ha), 80%; in assay [17] (30 g/ha), 100%; with SIDSP Sida spinosa (30 g/ha), 80%; in the assay with SINAR Sinapis arvensis (30 g/ha), 70%. In the assay with GLXMA Soybean (30 g/ha), the plant injury at 30 g/ha is 50%.

`C/C=C/c1c(N)nc(C2CC2)nc1C(=O)OC` [Ref. Ex. D, (E)-4-Amino-2-cyclopropyl-6-methoxycarbonyl-5-(prop-1-enyl)-pyrimidine, reference compound]: the pest or weed control at 125 g/ha in [13] (125 g/ha) worked out at 80%; in assay [14] (125 g/ha), 20%; with CHEAL Chenopodium album (125 g/ha), 60%; in assay [15] (125 g/ha) it was 50%; with VERPE Veronica persica (125 g/ha) it was 10%; with IPOHE Ipomoea hederacea (125 g/ha) it was 70%. The pest or weed control at 125 g/ha in the assay with GALAP Galium aparine (125 g/ha) came to 80%; in assay [16] (125 g/ha) it was 60%; in the assay on KCHSC Kochia scoparia (125 g/ha), 10%; in [17] (125 g/ha), 60%; in the assay on SIDSP Sida spinosa (125 g/ha) it was 60%; in the assay on SINAR Sinapis arvensis (125 g/ha), 80%. Besides, the plant injury at 125 g/ha with GLXMA Soybean (125 g/ha) stood at 80%.
